Assay results reported in ChEMBL document CHEMBL3797178, “Synthesis, antimycobacterial and antibacterial activity of 1-(6-amino-3,5-difluoropyridin-2-yl)fluoroquinolone derivatives containing an oxime functional moiety” (2016).
≈ marks a conversion by molar mass, not a printed value.

Tests used:
Assay type in all cases: functional
[1] = test system: Pseudomonas aeruginosa; test: Antibacterial activity against Pseudomonas aeruginosa 14-19 after 18 to 24 hrs by CLSI M100-S11 method
[2] = test system: Escherichia coli; test: Antibacterial activity against extended-spectrum beta-lactamase-producing Escherichia coli 14-2 after 18 to 24 hrs by CLSI M100-S11 method
[3] = test system: Klebsiella pneumoniae; test: Antibacterial activity against Klebsiella pneumoniae 14-4 after 18 to 24 hrs by CLSI M100-S11 method
[4] = test system: Pseudomonas aeruginosa; test: Antibacterial activity against Pseudomonas aeruginosa 14-16 after 18 to 24 hrs by CLSI M100-S11 method
[5] = test system: Klebsiella pneumoniae; test: Antibacterial activity against Klebsiella pneumoniae 14-1 after 18 to 24 hrs by CLSI M100-S11 method
[6] = test system: Staphylococcus aureus; test: Antibacterial activity against methicillin-resistant Staphylococcus aureus 14-5 after 18 to 24 hrs by CLSI M100-S11 method
[7] = test system: Staphylococcus epidermidis; test: Antibacterial activity against methicillin-resistant Staphylococcus epidermidis 14-37 after 18 to 24 hrs by CLSI M100-S11 method
[8] = test system: Staphylococcus epidermidis; test: Antibacterial activity against methicillin-sensitive Staphylococcus epidermidis 14-2 after 18 to 24 hrs by CLSI M100-S11 method
[9] = test system: Pseudomonas aeruginosa; test: Antibacterial activity against Pseudomonas aeruginosa 14-15 after 18 to 24 hrs by CLSI M100-S11 method
[10] = test system: Klebsiella pneumoniae; test: Antibacterial activity against extended-spectrum beta-lactamase-producing Klebsiella pneumoniae 14-19 after 18 to 24 hrs by CLSI M100-S11 method
[11] = test system: Staphylococcus aureus; test: Antibacterial activity against methicillin-sensitive Staphylococcus aureus 14-2 after 18 to 24 hrs by CLSI M100-S11 method
[12] = test system: Escherichia coli; test: Antibacterial activity against Escherichia coli 14-1 after 18 to 24 hrs by CLSI M100-S11 method
[13] = test system: Escherichia coli; test: Antibacterial activity against extended-spectrum beta-lactamase-producing Escherichia coli 14-1 after 18 to 24 hrs by CLSI M100-S11 method
[14] = test system: Enterococcus faecalis; test: Antibacterial activity against Enterococcus faecalis 14-2 after 18 to 24 hrs by CLSI M100-S11 method
[15] = test system: Staphylococcus aureus; test: Antibacterial activity against Staphylococcus aureus CMCC 26003 after 18 to 24 hrs by CLSI M100-S11 method
[16] = test system: Klebsiella pneumoniae; test: Antibacterial activity against extended-spectrum beta-lactamase-producing Klebsiella pneumoniae 14-17 after 18 to 24 hrs by CLSI M100-S11 method
[17] = test system: Pseudomonas aeruginosa; test: Antibacterial activity against Pseudomonas aeruginosa ATCC 27853 after 18 to 24 hrs by CLSI M100-S11 method
[18] = test system: Pseudomonas aeruginosa; test: Antibacterial activity against Pseudomonas aeruginosa 14-14 after 18 to 24 hrs by CLSI M100-S11 method
[19] = test system: Klebsiella pneumoniae; test: Antibacterial activity against Klebsiella pneumoniae 14-2 after 18 to 24 hrs by CLSI M100-S11 method
[20] = test system: Staphylococcus epidermidis; test: Antibacterial activity against methicillin-sensitive Staphylococcus epidermidis 14-4 after 18 to 24 hrs by CLSI M100-S11 method
[21] = test system: Escherichia coli; test: Antibacterial activity against Escherichia coli ATCC 25922 after 18 to 24 hrs by CLSI M100-S11 method
[22] = test system: Pseudomonas aeruginosa; test: Antibacterial activity against Pseudomonas aeruginosa 14-9 after 18 to 24 hrs by CLSI M100-S11 method
[23] = test system: Enterococcus faecalis; test: Antibacterial activity against Enterococcus faecalis 14-1 after 18 to 24 hrs by CLSI M100-S11 method
[24] = test system: Enterococcus faecium; test: Antibacterial activity against Enterococcus faecium 14-1 after 18 to 24 hrs by CLSI M100-S11 method
[25] = test system: Enterococcus faecalis; test: Antibacterial activity against Enterococcus faecalis 14-3 after 18 to 24 hrs by CLSI M100-S11 method
[26] = test system: Klebsiella pneumoniae; test: Antibacterial activity against Klebsiella pneumoniae 14-3 after 18 to 24 hrs by CLSI M100-S11 method
[27] = test system: Mycobacterium tuberculosis; test: Antimycobacterial activity against Mycobacterium tuberculosis H37Rv ATCC 27294 after 3 days by microplate Alamar Blue assay; details: H37Rv ATCC 27294, 72 h
[28] = test system: Enterococcus faecium; test: Antibacterial activity against Enterococcus faecium 14-2 after 18 to 24 hrs by CLSI M100-S11 method
[29] = test system: Staphylococcus aureus; test: Antibacterial activity against methicillin-sensitive Staphylococcus aureus 14-3 after 18 to 24 hrs by CLSI M100-S11 method
[30] = test system: Staphylococcus epidermidis; test: Antibacterial activity against methicillin-resistant Staphylococcus epidermidis 14-39 after 18 to 24 hrs by CLSI M100-S11 method
[31] = test system: Staphylococcus epidermidis; test: Antibacterial activity against methicillin-resistant Staphylococcus epidermidis 14-22 after 18 to 24 hrs by CLSI M100-S11 method
[32] = test system: Streptococcus pneumoniae; test: Antibacterial activity against Streptococcus pneumoniae ATCC 19615 after 18 to 24 hrs by CLSI M100-S11 method
[33] = test system: Staphylococcus aureus; test: Antibacterial activity against methicillin-resistant Staphylococcus aureus 14-4 after 18 to 24 hrs by CLSI M100-S11 method
[34] = test system: Staphylococcus aureus; test: Antibacterial activity against methicillin-sensitive Staphylococcus aureus 14-4 after 18 to 24 hrs by CLSI M100-S11 method
[35] = test system: Escherichia coli; test: Antibacterial activity against Escherichia coli 14-2 after 18 to 24 hrs by CLSI M100-S11 method
[36] = test system: Staphylococcus epidermidis; test: Antibacterial activity against methicillin-sensitive Staphylococcus epidermidis 14-6 after 18 to 24 hrs by CLSI M100-S11 method
[37] = test system: Klebsiella pneumoniae; test: Antibacterial activity against extended-spectrum beta-lactamase-producing Klebsiella pneumoniae 14-18 after 18 to 24 hrs by CLSI M100-S11 method

Row | SMILES | MIC [1] | MIC [2] | MIC [3] | MIC [4] | MIC [5] | MIC [6] | MIC [7] | MIC [8] | MIC [9] | MIC [10] | MIC [11] | MIC [12] | MIC [13] | MIC [14] | MIC [15] | MIC [16] | MIC [17] | MIC [18] | MIC [19] | MIC [20] | also measured
1 | CC1(CN)CN(c2nc3c(cc2F)c(=O)c(C(=O)O)cn3-c2nc(N)c(F)cc2F)C/C1=N\OCc1ccccc1 (centres undefined) | 128 µg/mL (≈ 226 µM) | > 128 µg/mL | > 128 µg/mL | 128 µg/mL (≈ 226 µM) | > 128 µg/mL | 64 µg/mL (≈ 113 µM) | > 128 µg/mL | > 128 µg/mL | 128 µg/mL (≈ 226 µM) | > 128 µg/mL | 0.25 µg/mL (≈ 0.441 µM) | > 128 µg/mL | 64 µg/mL (≈ 113 µM) | > 128 µg/mL | 0.25 µg/mL (≈ 0.441 µM) | > 128 µg/mL | 128 µg/mL (≈ 226 µM) | 128 µg/mL (≈ 226 µM) | > 128 µg/mL | > 128 µg/mL | MIC [21]: 16 µg/mL (≈ 28.2 µM); MIC [22]: 128 µg/mL (≈ 226 µM); MIC [23]: > 128 µg/mL; MIC [24]: > 128 µg/mL; MIC [25]: > 128 µg/mL; MIC [26]: > 128 µg/mL; MIC [27]: 15.6 µg/mL (≈ 27.5 µM); MIC [28]: 8 µg/mL (≈ 14.1 µM); MIC [29]: 8 µg/mL (≈ 14.1 µM); MIC [30]: > 128 µg/mL; MIC [31]: 64 µg/mL (≈ 113 µM); MIC [32]: 32 µg/mL (≈ 56.4 µM); MIC [33]: 64 µg/mL (≈ 113 µM); MIC [34]: 4 µg/mL (≈ 7.05 µM); MIC [35]: 128 µg/mL (≈ 226 µM); MIC [36]: > 128 µg/mL; MIC [37]: > 128 µg/mL
2 | NCC1CN(c2nc3c(cc2F)c(=O)c(C(=O)O)cn3-c2nc(N)c(F)cc2F)C/C1=N\OCc1ccccc1 (centres undefined) | 32 µg/mL (≈ 57.8 µM) | 128 µg/mL (≈ 231 µM) | 128 µg/mL (≈ 231 µM) | 32 µg/mL (≈ 57.8 µM) | 128 µg/mL (≈ 231 µM) | 128 µg/mL (≈ 231 µM) | 32 µg/mL (≈ 57.8 µM) | 64 µg/mL (≈ 116 µM) | 32 µg/mL (≈ 57.8 µM) | 128 µg/mL (≈ 231 µM) | 0.015 µg/mL (≈ 0.0271 µM) | 128 µg/mL (≈ 231 µM) | 8 µg/mL (≈ 14.5 µM) | 16 µg/mL (≈ 28.9 µM) | < 0.008 µg/mL | 64 µg/mL (≈ 116 µM) | 8 µg/mL (≈ 14.5 µM) | 32 µg/mL (≈ 57.8 µM) | 128 µg/mL (≈ 231 µM) | 32 µg/mL (≈ 57.8 µM) | MIC [21]: 0.5 µg/mL (≈ 0.903 µM); MIC [22]: 32 µg/mL (≈ 57.8 µM); MIC [23]: 8 µg/mL (≈ 14.5 µM); MIC [24]: 128 µg/mL (≈ 231 µM); MIC [25]: 16 µg/mL (≈ 28.9 µM); MIC [26]: 128 µg/mL (≈ 231 µM); MIC [27]: 3.81 µg/mL (≈ 6.88 µM); MIC [28]: 16 µg/mL (≈ 28.9 µM); MIC [29]: 0.25 µg/mL (≈ 0.452 µM); MIC [30]: 32 µg/mL (≈ 57.8 µM); MIC [31]: 16 µg/mL (≈ 28.9 µM); MIC [32]: 16 µg/mL (≈ 28.9 µM); MIC [33]: 64 µg/mL (≈ 116 µM); MIC [34]: 0.25 µg/mL (≈ 0.452 µM); MIC [35]: 128 µg/mL (≈ 231 µM); MIC [36]: 32 µg/mL (≈ 57.8 µM); MIC [37]: 32 µg/mL (≈ 57.8 µM)
